# pIC50: −log10 of the molar value.
# Target: T1, HSD17B13 enzyme (Homo sapiens, UniProt Q7Z5P4)
# T1 construct: His; made in house; host or cells: E. coli
# T1 sequence (Q7Z5P4 20-300): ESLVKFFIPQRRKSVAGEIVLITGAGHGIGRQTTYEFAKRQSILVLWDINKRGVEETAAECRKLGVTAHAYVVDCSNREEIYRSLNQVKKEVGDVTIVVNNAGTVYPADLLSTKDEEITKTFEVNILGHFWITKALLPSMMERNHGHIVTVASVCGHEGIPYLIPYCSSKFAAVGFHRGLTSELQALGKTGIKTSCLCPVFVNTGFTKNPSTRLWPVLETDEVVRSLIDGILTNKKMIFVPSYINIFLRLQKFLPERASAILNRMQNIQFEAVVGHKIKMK
# Experiment: NADH detection assay (fluorescence based LTB3 assay) for HSD17B13 activity
# Format: biochemical
# Details: substrate 25 μM LTB3, 3 mM NAD+, 125 nM HSD17B13 enzyme, 1 hour at 26.5° C.
# Description: Example A: NADH Detection Assay for Evaluation of HSD17ß13 Activity and Identification of Inhibitors
# The fluorescence based Leukotriene B3 (LTB3) assay monitors the fluorescence of NADH, which is generated from NAD+ during the dehydrogenation of the substrate LTB3. The reactions were performed in a 384-well plates (Greiner; #655076) in a 20 μl reaction volume containing the following reagents (final concentrations): 25 μM LTB3 (Cayman; #20109); 3 mM NAD+ (Sigma; #N0623); 125 nM HSD17B13 enzyme (in-house; E. coli expressed His-tagged, purified, soluble protein); […] potassium phosphate buffer, pH 7.4; and 1% DMSO. Reactions were initiated by co-addition of NAD+ and enzyme, and monitored for 1 hour at 26.5° C. Generation of NADH was measured as the fluorescence signal (Excitation at 340 nm and Emission at 445 nm) at 1 hour minus the baseline fluorescence at t=0. Fluorescence signals in the absence of LTB3 (negative control values), were subtracted from all values so that the results reflected substrate-dependent production of NADH. NADH standards were included to allow the conversion of relative fluorescence units into rates of enzyme activity. Enzyme activity in the presence of test compounds was expressed as a percentage of the uninhibited enzyme activity, and plotted versus inhibitor concentration. Non-linear regression was performed using a four-parameter logistic model and GraphPad Prism software (GraphPad Software, La Jolla, CA). Ten concentrations of inhibitor were tested (in the range of 30 μM-2.5 nM), and two independent assessments were performed at each concentration.
row,SMILES,pIC50
1,"O=S(=O)(Nc1cccc(-c2cccc(Oc3ccc(F)c(O)c3)n2)c1)c1ccccc1 [Example 18, N-(3-(6-(4-fluoro-3-hydroxyphenoxy)pyridin-2-yl)phenyl) benzenesulfonamide]",≥ 5.30
2,"Oc1cccc(-c2cccc(Oc3ccc(F)c(OC(F)F)c3)n2)c1F [Example 14, 3-{6-[3-(difluoromethoxy)-4-fluorophenoxy]pyridin-2-yl}-2-fluorophenol]",< 4.52
3,"O=S1(=O)CCN(c2ccc(-c3cccc(Oc4ccc(F)c(O)c4)n3)cc2)CC1 [Example 31, 4-(4-(6-(4-fluoro-3-hydroxyphenoxy)pyridin-2-yl)phenyl)thiomorpholine 1,1-dioxide]",≥ 5.30
4,"COc1cc(Oc2cccc(-c3ccc4c(c3)NS(=O)(=O)C4)n2)ccc1F [Example 60, 6-(6-(4-fluoro-3-methoxyphenoxy)pyridin-2-yl)-1,3-dihydrobenzo[c]isothiazole 2,2-dioxide]",< 4.52
5,"CC(=O)Nc1cc(Oc2cccc(-c3cccc(O)c3F)n2)ccc1F [Example 106, N-(2-fluoro-5-{[6-(2-fluoro-3-hydroxyphenyl)pyridin-2-yl]oxy}phenyl)acetamide]",< 4.52
6,"Oc1cc(Oc2cccc(-c3ccc(OCc4ccccc4)cc3)n2)ccc1F [Example 12, 5-((6-(4-(benzyloxy)phenyl)pyridin-2-yl)oxy)-2-fluorophenol]",≥ 5.30
7,"Oc1cccc(-c2cccc(Oc3ccc4cn[nH]c4c3)n2)c1F [Example 4, 6-((6-(2-fluoro-3-methoxyphenyl)pyridin-2-yl)oxy)-1H-indazole and 3-(6-((1H-indazol-6-yl)oxy)pyridin-2-yl)-2 fluorophenol]",≥ 5.30
8,"O=S(=O)(Nc1ccccc1)c1cccc(-c2cccc(Oc3ccc(F)c(O)c3)n2)c1 [Example 45, 3-(6-(4-fluoro-3-hydroxyphenoxy)pyridin-2-yl)-N-phenylbenzene sulfonamide]",≥ 5.30
9,"COc1cc(Oc2ccnc(-c3cccc(O)c3F)n2)ccc1F [Example 16, 2-fluoro-3-[4-(4-fluoro-3-methoxyphenoxy)pyrimidin-2-yl]phenol]",< 4.52
10,"Oc1cc(Oc2nccc(-c3cccc(O)c3F)n2)ccc1F [Example 11, 2-fluoro-3-[2-(4-fluoro-3-hydroxyphenoxy)pyrimidin-4-yl]phenol]",4.52 to 5.00
11,"Oc1ccc(Oc2cccc(-c3cccc(O)c3F)n2)cc1F [Example 37, 2-fluoro-3-[6-(3-fluoro-4-hydroxyphenoxy)pyridin-2-yl] phenol]",≥ 5.30
12,"COc1cccc(-c2cccc(Oc3ccc4cn[nH]c4c3)n2)c1F [Example 105, 6-{[6-(2-fluoro-3-methoxyphenyl)pyridin-2-yl]oxy}-1H-indazole]",< 4.52
13,"COc1cccc(F)c1-c1cccc(Oc2ccc(F)c(O)c2)n1 [Example 74, 2-fluoro-5-((6-(2-fluoro-6-methoxyphenyl)pyridin-2-yl)oxy)phenol]",< 4.52
14,"O=S(=O)(Nc1cccc(-c2cccc(Oc3ccc(F)c(O)c3)n2)c1F)C1CC1 [Example 114, N-{2-fluoro-3-[6-(4-fluoro-3-hydroxyphenoxy)pyridin-2-yl]phenyl} cyclopropanesulfonamide]",5.00 to 5.30
15,"Oc1cc(Oc2cccc(-c3ccc(C(F)(F)F)cc3)n2)ccc1F [Example 98, 2-fluoro-5-((6-(4-(trifluoromethyl)phenyl)pyridin-2-yl)oxy)phenol]",4.52 to 5.00
16,"COc1ccccc1-c1cccc(Oc2ccc(F)c(O)c2)n1 [Example 99, 2-fluoro-5-((6-(2-methoxyphenyl)pyridin-2-yl)oxy)phenol]",4.52 to 5.00
17,"O=S(=O)(Nc1cccc(-c2cccc(Oc3ccc(F)c(O)c3)n2)c1)C1CC1 [Example 113, N-(3-(6-(4-fluoro-3-hydroxyphenoxy)pyridin-2-yl)phenyl) cyclopropanesulfonamide]",4.52 to 5.00
18,"N#Cc1ccc(-c2cccc(Oc3ccc(F)c(O)c3)n2)c(F)c1 [Example 92, 3-fluoro-4-(6-(4-fluoro-3-hydroxyphenoxy)pyridin-2-yl)benzonitrile]",< 4.52
19,"Oc1cc(Oc2cccc(-c3c(F)cccc3F)n2)ccc1F [Example 78, 5-((6-(2,6-difluorophenyl)pyridin-2-yl)oxy)-2-fluorophenol]",5.00 to 5.30

# The next lines start with the values.
row,pIC50,SMILES
1,≥ 5.30,"O=c1[nH]c2ccc(-c3cccc(Oc4ccc(F)c(O)c4)n3)cc2[nH]1 [Example 58, 5-(6-(4-fluoro-3-hydroxyphenoxy)pyridin-2-yl)-1,3-dihydro-2H-benzo[d]imidazol-2-one]"
2,≥ 5.30,"CNC(=O)c1cccc(-c2cccc(Oc3ccc(F)c(O)c3)n2)c1 [Example 81, 3-(6-(4-fluoro-3-hydroxyphenoxy)pyridin-2-yl)-N-methylbenzamide]"
3,4.52 to 5.00,"N#Cc1cccc(-c2cccc(Oc3ccc(F)c(O)c3)n2)c1 [Example 104, 3-(6-(4-fluoro-3-hydroxyphenoxy)pyridin-2-yl)benzonitrile]"
4,< 4.52,"O=c1ccc(-c2cccc(Oc3ccc(F)c(O)c3)n2)cn1C(F)F [Example 73, 1′-(difluoromethyl)-6-(4-fluoro-3-hydroxyphenoxy)-[2,3′-bipyridin]-6′(1′H)-one]"
5,≥ 5.30,"Oc1cc(Oc2cccc(-c3ccc4c(c3)NCCO4)n2)ccc1F [Example 59, 5-((6-(3,4-dihydro-2H-benzo[b][1,4]oxazin-6-yl)pyridin-2-yl)oxy)-2-fluorophenol]"
6,≥ 5.30,"Oc1cc(Oc2cccc(-c3ccc(F)c(O)c3)n2)ccc1F [Example 40, 2-fluoro-5-(6-(4-fluoro-3-hydroxyphenoxy)pyridin-2-yl)phenol]"
7,≥ 5.30,"Oc1cc(Oc2cccc(-c3ccc4scnc4c3)n2)ccc1F [Example 50, 5-{[6-(1,3-benzothiazol-5-yl)pyridin-2-yl]oxy}-2-fluorophenol]"
8,≥ 5.30,"CC(=O)Nc1cccc(-c2cccc(Oc3ccc(F)c(O)c3)n2)c1 [Example 79, N-(3-(6-(4-fluoro-3-hydroxyphenoxy)pyridin-2-yl)phenyl)acetamide]"
9,≥ 5.30,"Oc1cc(Oc2cccc(-c3cc(F)ccc3F)n2)ccc1F [Example 88, 5-{[6-(2,5-difluorophenyl)pyridin-2-yl]oxy}-2-fluorophenol]"
10,4.52 to 5.00,"O=C(NC1CC1)c1cccc(-c2cccc(Oc3ccc(F)c(O)c3)n2)c1 [Example 63, N-cyclopropyl-3-(6-(4-fluoro-3-hydroxyphenoxy)pyridin-2-yl)benzamide]"
11,≥ 5.30,"CC(=O)N1CCOc2cc(-c3cccc(Oc4ccc(F)c(O)c4)n3)ccc21 [Example 46, 1-{7-[6-(4-fluoro-3-hydroxyphenoxy)pyridin-2-yl]-3,4-dihydro-2H-1,4-benzoxazin-4-yl}ethan-1-one]"
12,5.00 to 5.30,"Oc1cc(Oc2cccc(-c3ccc(F)cc3F)n2)ccc1F [Example 84, 5-{[6-(2,4-difluorophenyl)pyridin-2-yl]oxy}-2-fluorophenol]"
13,4.52 to 5.00,"CS(=O)(=O)c1ccc(-c2cccc(Oc3ccc(F)c(O)c3)n2)cc1 [Example 77, 2-fluoro-5-((6-(4-(methylsulfonyl)phenyl)pyridin-2-yl)oxy)phenol]"
14,≥ 5.30,"Oc1cc(Oc2cccc(-c3ccc(O)c(F)c3)n2)ccc1F [Example 39, 2-fluoro-4-(6-(4-fluoro-3-hydroxyphenoxy)pyridin-2-yl)phenol]"
15,4.52 to 5.00,"COc1ccc(-c2cccc(Oc3ccc(F)c(O)c3)n2)cc1 [Example 102, 2-fluoro-5-((6-(4-methoxyphenyl)pyridin-2-yl)oxy)phenol]"
16,5.00 to 5.30,"Oc1cc(Oc2cccc(-c3cccc(C(F)(F)F)c3)n2)ccc1F [Example 103, 2-fluoro-5-((6-(3-(trifluoromethyl)phenyl)pyridin-2-yl)oxy)phenol]"
17,4.52 to 5.00,"NS(=O)(=O)c1ccc(-c2cccc(Oc3ccc(F)c(O)c3)n2)cc1 [Example 76, 4-(6-(4-fluoro-3-hydroxyphenoxy)pyridin-2-yl)benzene sulfonamide]"
18,5.00 to 5.30,"CN(C)S(=O)(=O)c1cccc(-c2cccc(Oc3ccc(F)c(O)c3)n2)c1 [Example 20, 3-(6-(4-fluoro-3-hydroxyphenoxy)pyridin-2-yl)-N,N-dimethylbenzenesulfonamide]"
19,< 4.52,"O=C1COc2cc(-c3cccc(Oc4ccc(F)c(O)c4)n3)ccc2N1 [Example 51, 7-(6-(4-fluoro-3-hydroxyphenoxy)pyridin-2-yl)-2H-benzo[b][1,4]oxazin-3(4H)-one]"
20,≥ 5.30,"CNc1cccc(-c2cccc(Oc3ccc(F)c(O)c3)n2)c1 [Example 54, 2-fluoro-5-({6-[3-(methylamino)phenyl]pyridin-2-yl}oxy)phenol]"
